Assay results as given in paper PMC5218480 (PLoS ONE, 2017).

System: MV-4-11 cells
Assay: Gene expression microarray analysis (Affymetrix PrimeView) and GSEA
Assay type: cell-based, human
Design: RFU PODN (11730768_x_at) / Fold change /veh PODN (11730768_x_at) / RFU LINC00158 (11744669_a_at) / Fold change /veh LINC00158 (11744669_a_at) / RFU DUSP10 (11751237_a_at) / Fold change /veh DUSP10 (11751237_a_at) / RFU ID3 (11757404_x_at) / Fold change /veh ID3 (11757404_x_at) / RFU PLEKHG5 (11737974_s_at) / Fold change /veh PLEKHG5 (11737974_s_at) / RFU LRRC4B (11730491_at) / Fold change /veh LRRC4B (11730491_at) / RFU GIMAP4 (11747438_a_at) / Fold change /veh GIMAP4 (11747438_a_at) / RFU KRT8 (11758183_x_at) / Fold change /veh KRT8 (11758183_x_at) / RFU CNN1 (11734310_a_at) / Fold change /veh CNN1 (11734310_a_at) / RFU VPS37D (11726825_at) / Fold change /veh VPS37D (11726825_at) / RFU C10orf10 (11716522_x_at) / Fold change /veh C10orf10 (11716522_x_at) / RFU KIR2DL2 /// KIR2DL4 /// KIR2DL5A /// KIR2DL5B /// KIR2DS1 /// KIR2DS2 /// KIR2DS3 /// KIR2DS4 /// KIR3DL3 /// KIR3DL3 /// KIR3DS1 (11738374_at) / Fold change /veh KIR2DL2 /// KIR2DL4 /// KIR2DL5A /// KIR2DL5B /// KIR2DS1 /// KIR2DS2 /// KIR2DS3 /// KIR2DS4 /// KIR3DL3 /// KIR3DL3 /// KIR3DS1 (11738374_at) / RFU C1QL1 (11718748_at) / Fold change /veh C1QL1 (11718748_at) / RFU TMPRSS4 (11747572_a_at) / Fold change /veh TMPRSS4 (11747572_a_at) / RFU HAMP (11756126_x_at) / Fold change /veh HAMP (11756126_x_at) / RFU RNFT2 (11725882_a_at) / Fold change /veh RNFT2 (11725882_a_at) / RFU NR4A2 (11747474_a_at) / Fold change /veh NR4A2 (11747474_a_at) / RFU ABCC12 (11746883_a_at) / Fold change /veh ABCC12 (11746883_a_at) / RFU TMEM136 (11760407_x_at) / Fold change /veh TMEM136 (11760407_x_at) / RFU CLDN22 /// WWC2 (11732394_at) / Fold change /veh CLDN22 /// WWC2 (11732394_at) / RFU HLA-DPB1 (11760878_x_at) / Fold change /veh HLA-DPB1 (11760878_x_at) / RFU SPINT1 (11716480_a_at) / Fold change /veh SPINT1 (11716480_a_at) / RFU GAP43 (11754022_s_at) / Fold change /veh GAP43 (11754022_s_at) / RFU A4GNT (11735810_at) / Fold change /veh A4GNT (11735810_at) / RFU PRB3 (11715151_x_at) / Fold change /veh PRB3 (11715151_x_at) / RFU TUBB4B (11761932_at) / Fold change /veh TUBB4B (11761932_at) / RFU CAPN14 (11732068_a_at) / Fold change /veh CAPN14 (11732068_a_at) / RFU TMCC2 (11721928_a_at) / Fold change /veh TMCC2 (11721928_a_at) / RFU IRGQ (11745062_a_at) / Fold change /veh IRGQ (11745062_a_at) / RFU FAM174B (11720279_a_at) / Fold change /veh FAM174B (11720279_a_at) / RFU TMPRSS4 (11748680_a_at) / Fold change /veh TMPRSS4 (11748680_a_at) / RFU FAM212B (11763350_a_at) / Fold change /veh FAM212B (11763350_a_at) / RFU PLEKHG5 (11743358_a_at) / Fold change /veh PLEKHG5 (11743358_a_at) / RFU ZSCAN30 (11745921_a_at) / Fold change /veh ZSCAN30 (11745921_a_at) / RFU CMKLR1 (11741424_a_at) / Fold change /veh CMKLR1 (11741424_a_at) / RFU LOC101060620 /// MAPK8IP1 (11723275_at) / Fold change /veh LOC101060620 /// MAPK8IP1 (11723275_at) / RFU SPTSSB (11747773_x_at) / Fold change /veh SPTSSB (11747773_x_at) / RFU PRSS12 (11739890_at) / Fold change /veh PRSS12 (11739890_at) / RFU BIN1 (11741810_x_at) / Fold change /veh BIN1 (11741810_x_at) / RFU WNT11 (11732464_a_at) / Fold change /veh WNT11 (11732464_a_at) / RFU C10orf10 (11716521_a_at) / Fold change /veh C10orf10 (11716521_a_at) / RFU C5orf56 (11738089_at) / Fold change /veh C5orf56 (11738089_at) / RFU CYB561 (11721691_x_at) / Fold change /veh CYB561 (11721691_x_at) / RFU ANKRD19P (11752326_a_at) / Fold change /veh ANKRD19P (11752326_a_at) / RFU OR2T12 /// OR2T33 /// OR2T8 (11738714_s_at) / Fold change /veh OR2T12 /// OR2T33 /// OR2T8 (11738714_s_at) / RFU VCAN (11748164_a_at) / Fold change /veh VCAN (11748164_a_at) / RFU JSRP1 (11732532_at) / Fold change /veh JSRP1 (11732532_at) / RFU KRTAP10-11 (11738290_x_at) / Fold change /veh KRTAP10-11 (11738290_x_at) / RFU MYO3A (11730013_a_at) / Fold change /veh MYO3A (11730013_a_at) / RFU EBF3 (11725865_a_at) / Fold change /veh EBF3 (11725865_a_at) / RFU CAMK2N1 (11719241_x_at) / Fold change /veh CAMK2N1 (11719241_x_at) / RFU C5orf56 (11738088_a_at) / Fold change /veh C5orf56 (11738088_a_at) / RFU OLFML3 (11715873_a_at) / Fold change /veh OLFML3 (11715873_a_at) / RFU LOC100653217 /// NTM (11731650_a_at) / Fold change /veh LOC100653217 /// NTM (11731650_a_at) / RFU MAPK11 (11762145_a_at) / Fold change /veh MAPK11 (11762145_a_at) / RFU FIZ1 (11724087_x_at) / Fold change /veh FIZ1 (11724087_x_at) / RFU OASL (11726364_x_at) / Fold change /veh OASL (11726364_x_at) / RFU SOX15 (11748057_x_at) / Fold change /veh SOX15 (11748057_x_at) / RFU CD79A (11719716_a_at) / Fold change /veh CD79A (11719716_a_at) / RFU HIST1H1D (11736915_at) / Fold change /veh HIST1H1D (11736915_at) / RFU CASKIN2 (11723855_a_at) / Fold change /veh CASKIN2 (11723855_a_at) / RFU LOC730098 (11760151_x_at) / Fold change /veh LOC730098 (11760151_x_at) / RFU OR4N2 (11742367_at) / Fold change /veh OR4N2 (11742367_at) / RFU PRRT2 (11749266_a_at) / Fold change /veh PRRT2 (11749266_a_at) / RFU SNX32 (11753110_a_at) / Fold change /veh SNX32 (11753110_a_at) / RFU CDHR5 (11726645_a_at) / Fold change /veh CDHR5 (11726645_a_at) / RFU RCAN1 (11760418_a_at) / Fold change /veh RCAN1 (11760418_a_at) / RFU FAM167A (11723789_a_at) / Fold change /veh FAM167A (11723789_a_at) / RFU FAM26E (11764081_at) / Fold change /veh FAM26E (11764081_at) / RFU ISYNA1 (11749810_s_at) / Fold change /veh ISYNA1 (11749810_s_at) / RFU ACY1 (11761880_at) / Fold change /veh ACY1 (11761880_at) / RFU 11764098_at / Fold change /veh 11764098_at / RFU SAMD14 (11745864_x_at) / Fold change /veh SAMD14 (11745864_x_at) / RFU NPB (11741838_a_at) / Fold change /veh NPB (11741838_a_at) / RFU TMPRSS6 (11731388_a_at) / Fold change /veh TMPRSS6 (11731388_a_at) / RFU KRTAP10-2 (11738614_at) / Fold change /veh KRTAP10-2 (11738614_at) / RFU ARHGAP8 /// PRR5-ARHGAP8 (11727945_x_at) / Fold change /veh ARHGAP8 /// PRR5-ARHGAP8 (11727945_x_at) / RFU KRTAP5-7 /// NADSYN1 (11734609_at) / Fold change /veh KRTAP5-7 /// NADSYN1 (11734609_at) / RFU RASL12 (11751679_a_at) / Fold change /veh RASL12 (11751679_a_at) / RFU CDKN2B (11736163_a_at) / Fold change /veh CDKN2B (11736163_a_at) / RFU PRF1 (11729649_at) / Fold change /veh PRF1 (11729649_at) / RFU, ZNF638 /// ZNF638-IT1 / Fold change vs veh, ZNF638 /// ZNF638-IT1 / RFU, PANK3 / Fold change vs veh, PANK3 / RFU, SH3YL1 / Fold change vs veh, SH3YL1 / RFU, ZEB2 / Fold change vs veh, ZEB2 / RFU, NRIP1 / Fold change vs veh, NRIP1 / RFU, PTTG1IP / Fold change vs veh, PTTG1IP / RFU, CAPN2 / Fold change vs veh, CAPN2 / RFU, MED14 / Fold change vs veh, MED14 / RFU, SNORA58 / Fold change vs veh, SNORA58 / RFU, C1orf63 / Fold change vs veh, C1orf63 / RFU, LRRFIP1 / Fold change vs veh, LRRFIP1 / RFU, NDUFAF7 / Fold change vs veh, NDUFAF7 / RFU, SLC12A2 / Fold change vs veh, SLC12A2 / RFU, IBTK / Fold change vs veh, IBTK / RFU, ESF1 / Fold change vs veh, ESF1 / Fold change vs veh, TMEM50B / RFU, TAOK1 / Fold change vs veh, TAOK1 / RFU, ACBD3 / Fold change vs veh, ACBD3 / RFU, TMA16 / Fold change vs veh, TMA16 / RFU, RWDD3 / Fold change vs veh, RWDD3 / RFU, BCAT1 / Fold change vs veh, BCAT1 / RFU, EDEM3 / Fold change vs veh, EDEM3 / RFU, TMEM33 / Fold change vs veh, TMEM33 / RFU, WDR75 / Fold change vs veh, WDR75 / RFU, AHCTF1 / Fold change vs veh, AHCTF1 / RFU, TFRC / Fold change vs veh, TFRC / RFU, ZDHHC17 / Fold change vs veh, ZDHHC17 / RFU, NOM1 / Fold change vs veh, NOM1 / RFU, ARL8B / Fold change vs veh, ARL8B / RFU, ZBTB11 / Fold change vs veh, ZBTB11 / RFU, TAMM41 / Fold change vs veh, TAMM41 / RFU, KIAA1704 /// LOC100996395 / Fold change vs veh, KIAA1704 /// LOC100996395 / RFU, ING1 / Fold change vs veh, ING1 / RFU, TRMT61B / Fold change vs veh, TRMT61B / RFU, FUBP3 / Fold change vs veh, FUBP3 / RFU, TP53 / Fold change vs veh, TP53 / RFU, TNKS2 / Fold change vs veh, TNKS2 / RFU, ZFP14 / Fold change vs veh, ZFP14 / RFU, ACTR2 / Fold change vs veh, ACTR2 / RFU, PPP3R1 / Fold change vs veh, PPP3R1 / RFU, PIK3R1 / Fold change vs veh, PIK3R1 / RFU, HNRNPA1 / Fold change vs veh, HNRNPA1 / RFU, RNF170 / Fold change vs veh, RNF170 / RFU, ZNF28 / Fold change vs veh, ZNF28 / RFU, RNGTT / Fold change vs veh, RNGTT / RFU, OGT / Fold change vs veh, OGT / RFU, BRD1 / Fold change vs veh, BRD1 / RFU, MARS / Fold change vs veh, MARS / RFU, ZNF655 / Fold change vs veh, ZNF655 / RFU, FAHD1 / Fold change vs veh, FAHD1 / RFU, BDP1 / Fold change vs veh, BDP1 / RFU, LRRCC1 / Fold change vs veh, LRRCC1 / RFU, ARID1A / Fold change vs veh, ARID1A / RFU, ZNF146 / Fold change vs veh, ZNF146 / RFU, ZNF330 / Fold change vs veh, ZNF330 / RFU, GPN3 / Fold change vs veh, GPN3 / RFU, C9orf123 / Fold change vs veh, C9orf123 / RFU, N4BP2L2 / Fold change vs veh, N4BP2L2 / RFU, ARFIP1 / Fold change vs veh, ARFIP1 / RFU, FAM179B / Fold change vs veh, FAM179B / RFU, BCL10 / Fold change vs veh, BCL10 / RFU, UHRF1BP1L / Fold change vs veh, UHRF1BP1L / RFU, BET1 / Fold change vs veh, BET1 / RFU, CNOT2 / Fold change vs veh, CNOT2 / RFU, ZNF268 / Fold change vs veh, ZNF268 / Fold change vs veh, ZNF507 / RFU, DGCR2 / Fold change vs veh, DGCR2 / RFU, WDSUB1 / Fold change vs veh, WDSUB1 / Fold change vs veh, HSP90B1 /// MIR3652 / RFU, ADSS / Fold change vs veh, ADSS / RFU, GK / Fold change vs veh, GK / RFU, ZNF148 / Fold change vs veh, ZNF148 / RFU, TAF9 / Fold change vs veh, TAF9 / RFU, SLC1A5 / Fold change vs veh, SLC1A5 / RFU, SLMO2 / Fold change vs veh, SLMO2 / RFU, ABCC4 / Fold change vs veh, ABCC4 / RFU, LOC101060439 /// RAP1B / Fold change vs veh, LOC101060439 /// RAP1B / RFU, RFX7 / Fold change vs veh, RFX7 / RFU, GTPBP10 / Fold change vs veh, GTPBP10 / RFU, CNEP1R1 / Fold change vs veh, CNEP1R1 / RFU, BIVM-ERCC5 /// ERCC5 / Fold change vs veh, BIVM-ERCC5 /// ERCC5 / RFU, ILF3 / Fold change vs veh, ILF3 / RFU 11762660_at / Fold change /veh 11762660_at / RFU VCAN (11757783_s_at) / Fold change /veh VCAN (11757783_s_at) / RFU DDX43 (11728927_at) / Fold change /veh DDX43 (11728927_at) / RFU KRT8 (11758188_x_at) / Fold change /veh KRT8 (11758188_x_at) / RFU NKD1 (11759106_at) / Fold change /veh NKD1 (11759106_at) / RFU SRD5A1 (11742802_a_at) / Fold change /veh SRD5A1 (11742802_a_at) / RFU TPSAB1 /// TPSB2 (11721975_s_at) / Fold change /veh TPSAB1 /// TPSB2 (11721975_s_at) / RFU GSTM3 (11746129_a_at) / Fold change /veh GSTM3 (11746129_a_at) / RFU IL23R (11737362_x_at) / Fold change /veh IL23R (11737362_x_at) / RFU TMEM51 (11727254_a_at) / Fold change /veh TMEM51 (11727254_a_at) / RFU PIWIL2 (11732686_x_at) / Fold change /veh PIWIL2 (11732686_x_at) / RFU ORM1 (11744905_x_at) / Fold change /veh ORM1 (11744905_x_at) / RFU CCDC152 (11743942_at) / Fold change /veh CCDC152 (11743942_at) / RFU ECM1 (11717891_a_at) / Fold change /veh ECM1 (11717891_a_at) / RFU IL23R (11748794_a_at) / Fold change /veh IL23R (11748794_a_at) / RFU TNFAIP8L3 (11732012_x_at) / Fold change /veh TNFAIP8L3 (11732012_x_at) / RFU MBOAT4 (11741988_at) / Fold change /veh MBOAT4 (11741988_at) / RFU 11764193_at / Fold change /veh 11764193_at / RFU TMEM53 (11763286_at) / Fold change /veh TMEM53 (11763286_at) / RFU MAGEB2 (11727129_at) / Fold change /veh MAGEB2 (11727129_at) / RFU TMEM200A (11744735_a_at) / Fold change /veh TMEM200A (11744735_a_at) / RFU CCDC152 (11751479_a_at) / Fold change /veh CCDC152 (11751479_a_at) / RFU FAM211A (11726209_a_at) / Fold change /veh FAM211A (11726209_a_at) / RFU RGS16 (11746705_a_at) / Fold change /veh RGS16 (11746705_a_at) / RFU VCAN (11755009_s_at) / Fold change /veh VCAN (11755009_s_at) / RFU RHOB (11743442_s_at) / Fold change /veh RHOB (11743442_s_at) / RFU RGS16 (11720943_a_at) / Fold change /veh RGS16 (11720943_a_at) / RFU RGS16 (11720944_at) / Fold change /veh RGS16 (11720944_at) / RFU, VPS4B / Fold change vs veh, VPS4B / RFU, CREB1 / Fold change vs veh, CREB1 / RFU, DNAJC13 / Fold change vs veh, DNAJC13 / RFU, GNAQ / Fold change vs veh, GNAQ / RFU, CDK5R1 / Fold change vs veh, CDK5R1 / RFU, ZRANB3 / Fold change vs veh, ZRANB3 / RFU, CUL4A / Fold change vs veh, CUL4A / RFU, CCNY / Fold change vs veh, CCNY / RFU, UFL1 / Fold change vs veh, UFL1 / RFU, COG3 / Fold change vs veh, COG3 / RFU, DIAPH2 / Fold change vs veh, DIAPH2 / RFU, SKA2 / Fold change vs veh, SKA2 / RFU, AFF3 / Fold change vs veh, AFF3 / RFU, LMF1 / Fold change vs veh, LMF1 / RFU, IPO11 / Fold change vs veh, IPO11 / RFU, DFFB / Fold change vs veh, DFFB / RFU, FOXP1 / Fold change vs veh, FOXP1 / RFU, CARD8 / Fold change vs veh, CARD8 / RFU, STRN3 / Fold change vs veh, STRN3 / RFU, ADK / Fold change vs veh, ADK / RFU, RASSF2 / Fold change vs veh, RASSF2 / RFU, WIPF1 / Fold change vs veh, WIPF1 / RFU, LARP1B / Fold change vs veh, LARP1B / RFU, RASA1 / Fold change vs veh, RASA1 / RFU, RB1 / Fold change vs veh, RB1 / RFU, PPFIA1 / Fold change vs veh, PPFIA1 / RFU, MAT2A / Fold change vs veh, MAT2A / RFU, CCT5 / Fold change vs veh, CCT5 / RFU, WDR92 / Fold change vs veh, WDR92 / RFU, CUX1 / Fold change vs veh, CUX1 / RFU, TTC7A / Fold change vs veh, TTC7A / RFU, TMEM135 / Fold change vs veh, TMEM135 / RFU, DEPTOR / Fold change vs veh, DEPTOR / RFU, CPM / Fold change vs veh, CPM / RFU, DNAJB6 / Fold change vs veh, DNAJB6 / RFU, CACNA2D3 / Fold change vs veh, CACNA2D3 / RFU, DTX4 / Fold change vs veh, DTX4 / RFU, TFCP2 / Fold change vs veh, TFCP2 / RFU, GMCL1 /// GMCL1P1 / Fold change vs veh, GMCL1 /// GMCL1P1 / RFU, AEBP2 / Fold change vs veh, AEBP2 / RFU, SNHG1 /// SNORD22 /// SNORD25 /// SNORD26 /// SNORD27 /// SNORD28 /// SNORD29 /// SNORD31 / Fold change vs veh, SNHG1 /// SNORD22 /// SNORD25 /// SNORD26 /// SNORD27 /// SNORD28 /// SNORD29 /// SNORD31 / Fold change (Aza/veh), C12orf56 (ProbeSet 11735607_a_at) / Fold change (ACY-1035/veh), C12orf56 (ProbeSet 11735607_a_at) / Fold change (Aza/veh), FGFR1OP (ProbeSet 11751329_s_at) / Fold change (ACY-1035/veh), FGFR1OP (ProbeSet 11751329_s_at) / Fold change (Aza/veh), VPS36 (ProbeSet 11739960_a_at) / Fold change (ACY-1035/veh), VPS36 (ProbeSet 11739960_a_at) / RFU SYPL1 (11715823_x_at) / Fold change /veh SYPL1 (11715823_x_at) / RFU IGFBP7 (11715501_s_at) / Fold change /veh IGFBP7 (11715501_s_at) / RFU REEP3 (11722064_at) / Fold change /veh REEP3 (11722064_at) / RFU IGLL1 (11728026_x_at) / Fold change /veh IGLL1 (11728026_x_at): dose or concentration left out as unconfirmed
Settings: ProbeSet 11743510_at; LIST D

Nc1ccc(-c2cccs2)cc1NC(=O)c1ccc2c(c1)cc(C1CC1)n2CCN1CCOCC1 [ACY-1035]
RFU, UFL1: 325.04 RFU
